We go through ten compounds from ChEMBL document CHEMBL1201862, “PubChem BioAssay data set” (2004).

Molecules are shown by their SMILES.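 How tested: cells in 96-well plates exposed to compound for 48 hours at five concentrations. GI50: concentration for 50% inhibition of growth.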 Calls of active or inactive are those of the source. Cut-off read from the data, not from the text of the source: active = GI50 up to about 1.1 µM and inactive = higher.

Test systems include 786-0; A498; CAKI-1; COLO 205; HCT-116; HL-60; HOP-62; HT-29; IGROV-1; KM12; LOX IMVI; M14; MDA-MB-435; MDA-N; Malme-3M; OVCAR-5; RPMI-8226; SK-MEL-5; SR; U-251.
What all share (test): growth of human tumour cells (NCI), 48 h

Consider `Cc1c2oc3c(C)cnc(C(=O)NC4C(=O)NC(C(C)C)C(=O)N5CCCC5C(=O)N(C)CC(=O)N(C)C(C(C)C)C(=O)OC4C)c3nc-2c(C(=O)NC2C(=O)NC(C(C)C)C(=O)N3CCCC3C(=O)N(C)CC(=O)N(C)C(C(C)C)C(=O)OC2C)c(N)c1=O` (centres undefined), for which the GI50 in the assay with 786-0 is 2.3 µM (inactive); in the assay on A498, 6.18 µM (inactive); with CAKI-1, 10.9 µM (inactive); in the assay on COLO 205, 1.8 µM (inactive); with HCT-116, 0.396 µM (active); in the assay with HL-60, 0.769 µM (active). Further, the GI50 in the assay on HOP-62 is 3.05 µM (inactive); in the assay on HT-29 it was 1.29 µM (inactive); in the assay on IGROV-1, 0.687 µM (active); in the assay with KM12, 5.94 µM (inactive); with LOX IMVI, 0.348 µM (active); in the assay on M14 it was 3.4 µM (inactive). The GI50 in the assay with MDA-MB-435 is 2.74 µM (inactive); in the assay with MDA-N, 0.979 µM (active); in the assay on Malme-3M it was 1.28 µM (inactive); in the assay with OVCAR-5, 13.2 µM (inactive); in the assay on RPMI-8226 it was 0.211 µM (active); in the assay on SK-MEL-5 it was 1.04 µM (active). The figures for the GI50 in the assay on SR and in the assay on U-251 were 0.575 µM (active) and 0.931 µM (active), respectively.

On to `Cn1ccnc1Sc1ccc(/C=N/NC(=O)c2ccccc2[N+](=O)[O-])cc1[N+](=O)[O-]`, for which the GI50 with 786-0 is 68.9 µM (inactive); in the assay on A498 it was 58.9 µM (inactive); in the assay on CAKI-1, 49.8 µM (inactive); in the assay with COLO 205, 56.2 µM (inactive); with HCT-116, 65.6 µM (inactive); with HL-60, 47.1 µM (inactive). In addition, the GI50 in the assay with HOP-62 is > 100 µM (inactive); with HT-29 it was 35.6 µM (inactive); in the assay with IGROV-1, 37.4 µM (inactive); in the assay with KM12, 49.9 µM (inactive); in the assay on LOX IMVI it was 37.3 µM (inactive); in the assay on M14, > 100 µM (inactive). Further, the GI50 was 66.7 µM (inactive) in the assay on MDA-MB-435; 89.1 µM (inactive) in the assay on MDA-N; 54.6 µM (inactive) with Malme-3M; > 100 µM (inactive) in the assay with OVCAR-5; 38.7 µM (inactive) in the assay with RPMI-8226; 46.1 µM (inactive) in the assay on SK-MEL-5. Besides, the GI50 is 36.1 µM (inactive) with SR and > 100 µM (inactive) with U-251.

As for `O=c1ssc(Cl)c1Cl`, the GI50 with 786-0 was > 4.7 µM (inactive); in the assay on A498 it was > 10 µM (inactive); in the assay on CAKI-1, 5.38 µM (inactive); with COLO 205 it was 2.11 µM (inactive); in the assay with HCT-116, > 5.98 µM (inactive); with HL-60, 2.47 µM (inactive). Further, the GI50 in the assay with HOP-62, with HT-29, with IGROV-1, in the assay on KM12, in the assay on LOX IMVI and in the assay on M14 was > 10 µM (inactive) throughout. The GI50 with MDA-MB-435 was > 10 µM (inactive); in the assay with MDA-N, > 10 µM (inactive); in the assay with Malme-3M, > 6.11 µM (inactive); with OVCAR-5, > 10 µM (inactive); with RPMI-8226 it was 5.19 µM (inactive); with SK-MEL-5, > 10 µM (inactive). Also, the GI50 with SR and in the assay with U-251 was > 10 µM (inactive) each time.

As to `C=CC(Br)(CBr)CCC1OC1(C)C` (centres undefined), the GI50 in the assay on 786-0 was 15.7 µM (inactive); in the assay with A498 it was 21.7 µM (inactive); with CAKI-1, 19.5 µM (inactive); with COLO 205 it was 18.7 µM (inactive); in the assay on HCT-116 it was 17 µM (inactive); with HL-60 it was 23.1 µM (inactive). The GI50 in the assay with HOP-62 was 18.9 µM (inactive); in the assay on HT-29, 17.4 µM (inactive); with IGROV-1, 13.2 µM (inactive); in the assay on KM12, 17.1 µM (inactive); in the assay on LOX IMVI, 5.47 µM (inactive); with M14, 13.9 µM (inactive). Moreover, the GI50 in the assay on MDA-MB-435 was 17.3 µM (inactive); in the assay on MDA-N, 11.3 µM (inactive); with Malme-3M it was 23.5 µM (inactive); with OVCAR-5, 18.9 µM (inactive); with RPMI-8226, 20.4 µM (inactive); in the assay on SK-MEL-5, 14.2 µM (inactive). The results for the GI50 with SR and in the assay on U-251 were 26.9 µM (inactive) and 17 µM (inactive), respectively.

As for `NC(=O)C(=CNC(=S)Nc1ccc(Cl)c(Cl)c1)C(N)=O`, the GI50 with 786-0 is > 71.1 µM (inactive); with A498 it was > 61.4 µM (inactive); in the assay on CAKI-1, 59.4 µM (inactive); in the assay with COLO 205, 42.8 µM (inactive); in the assay on HCT-116 it was > 78.2 µM (inactive); in the assay on HL-60, > 60.1 µM (inactive). The GI50 is > 100 µM (inactive) in the assay on HOP-62; 46.3 µM (inactive) with HT-29; 92.7 µM (inactive) in the assay with IGROV-1; 55.1 µM (inactive) in the assay on KM12; > 92.3 µM (inactive) in the assay on LOX IMVI; > 100 µM (inactive) with M14. In addition, the GI50 was 44.8 µM (inactive) in the assay with MDA-MB-435; 47.4 µM (inactive) with MDA-N; > 100 µM (inactive) in the assay with Malme-3M; > 100 µM (inactive) in the assay with OVCAR-5; 36.1 µM (inactive) in the assay on RPMI-8226; 42.3 µM (inactive) in the assay with SK-MEL-5. For the same compound, the GI50 in the assay on SR was > 71.3 µM (inactive); in the assay on U-251, > 56 µM (inactive).

Turning to `OCC(O)COCn1cc(Cn2ncc3c(NCc4ccccc4)ncnc32)nn1` (centres undefined), the GI50 in the assay on 786-0, in the assay on A498, with CAKI-1, in the assay with COLO 205, in the assay with HCT-116 and in the assay with HL-60 was > 100 µM (inactive) throughout. In addition, the GI50 in the assay on HOP-62, with HT-29, in the assay on IGROV-1, in the assay on KM12, with LOX IMVI and with M14 was > 100 µM (inactive) in each case. Also, the GI50 in the assay with MDA-MB-435, in the assay with MDA-N, in the assay on OVCAR-5, in the assay on RPMI-8226, in the assay with SK-MEL-5 and with SR was > 100 µM (inactive) throughout. In addition, the GI50 in the assay on U-251 is > 100 µM (inactive).

For `Cc1ccc(Nc2c(C#N)[n+]([O-])c3cc(Cl)ccc3[n+]2[O-])cc1`, the GI50 in the assay on 786-0 is 4.8 µM (inactive); with A498, > 100 µM (inactive); with CAKI-1, 42 µM (inactive); in the assay on COLO 205 it was 18.4 µM (inactive); in the assay with HCT-116, 8.79 µM (inactive); in the assay with HL-60, 3.44 µM (inactive). For the same compound, the GI50 with HOP-62 is 43.1 µM (inactive); with HT-29 it was 11.2 µM (inactive); in the assay on IGROV-1, 15.5 µM (inactive); in the assay on KM12 it was 12.6 µM (inactive); with LOX IMVI, 6.85 µM (inactive); in the assay on M14, 30.3 µM (inactive). Besides, the GI50 with MDA-MB-435 is 44.7 µM (inactive); with MDA-N, > 53.8 µM (inactive); with Malme-3M, 79.3 µM (inactive); with OVCAR-5 it was > 100 µM (inactive); in the assay with RPMI-8226, 4.61 µM (inactive); in the assay on SR, 7.98 µM (inactive). Further, the GI50 with U-251 was 29.3 µM (inactive).

Regarding `Cc1cccc2c1CC1(Cc3c(C)cccc3C1=O)C2=O`, the GI50 in the assay on 786-0, in the assay on A498, with CAKI-1, in the assay with HCT-116, in the assay on HL-60 and in the assay with HOP-62 was > 100 µM (inactive) in each case. The GI50 with HT-29, in the assay with IGROV-1, with LOX IMVI, in the assay with M14, with MDA-MB-435 and in the assay on MDA-N was > 100 µM (inactive) each time. For the same compound, the GI50 in the assay on Malme-3M, in the assay with OVCAR-5, in the assay with RPMI-8226, in the assay on SK-MEL-5, in the assay on SR and in the assay on U-251 was > 100 µM (inactive) in each case.

`CON(C)C(=O)C1CCCO1` (centres undefined): the GI50 in the assay on 786-0 was > 100 µM (inactive); in the assay on A498, > 100 µM (inactive); in the assay on CAKI-1, > 100 µM (inactive); in the assay on COLO 205, > 100 µM (inactive); in the assay with HCT-116 it was > 100 µM (inactive); in the assay on HL-60 it was 34.5 µM (inactive). Besides, the GI50 with HOP-62, in the assay on HT-29, in the assay on IGROV-1, in the assay with KM12, with LOX IMVI and with M14 was > 100 µM (inactive) throughout. For the same compound, the GI50 in the assay on MDA-MB-435 is > 100 µM (inactive); in the assay with MDA-N, > 100 µM (inactive); with OVCAR-5, > 100 µM (inactive); with RPMI-8226 it was 68.7 µM (inactive); in the assay with SK-MEL-5, 67 µM (inactive); in the assay with SR, > 100 µM (inactive). In addition, the GI50 with U-251 was > 100 µM (inactive).

Take `O=C(NCCCl)Nc1ccccc1`: the GI50 with 786-0, in the assay with A498, with CAKI-1, with COLO 205, in the assay with HCT-116 and in the assay on HL-60 was > 100 µM (inactive) each time. Also, the GI50 with HOP-62, in the assay with HT-29, in the assay on IGROV-1, in the assay on KM12, with LOX IMVI and in the assay with MDA-MB-435 was > 100 µM (inactive) each time. Moreover, the GI50 with MDA-N, in the assay on Malme-3M, with OVCAR-5, in the assay on RPMI-8226, with SK-MEL-5 and with SR was > 100 µM (inactive) throughout. Besides, the GI50 in the assay on U-251 was > 100 µM (inactive).
